Reference: PubChem BioAssay AID260 (DTP/NCI, 2004)
Several values for one entry are separate records, joined by “and”; a condition that tells them apart may be missing. Equal entries are not always repeated. Toxic doses and inconclusive results are not listed.

Tested on: CD2F1 mice, intracerebral L1210 leukemia, survival T/C
Experiment: NCI In Vivo Anticancer Drug Screen. Data for tumor model L1210 Leukemia (intracerebral) in CD2F1 (CDF1) mice
Details: higher = longer survival
Description: The antitumor activity of compounds was measured in mice bearing transplantable tumors. Survival or tumor size were measured and the results are expressed as the measurement made in the treated group (T) divided by the measurement made in the vehicle treated control group (C). The tumor model used in this assay is L1210 Leukemia (intracerebral) in CD2F1 (CDF1) mice

[1] = endpoint: median survival time, dose: 8.0 mg/kg/injection, schedule: Q01DX009 (ip), vehicle: saline with Tween-80
[2] = endpoint: median survival time, dose: 16.0 mg/kg/injection, schedule: Q01DX009 (ip), vehicle: saline with Tween-80
[3] = endpoint: median survival time, dose: 32.0 mg/kg/injection, schedule: Q01DX009 (ip), vehicle: saline with Tween-80
[4] = endpoint: median survival time, dose: 64.0 mg/kg/injection, schedule: Q01DX009 (ip), vehicle: saline with Tween-80
[5] = endpoint: median survival time, dose: 128.0 mg/kg/injection, schedule: Q01DX009 (ip), vehicle: saline with Tween-80
[6] = endpoint: median survival time, dose: 256.0 mg/kg/injection, schedule: Q01DX009 (ip), vehicle: saline with Tween-80
[7] = endpoint: median survival time, dose: 32.0 mg/kg/injection, schedule: Q01DX005 (ip), vehicle: saline with Tween-80
[8] = endpoint: mean survival time, dose: 1.0 mg/kg/injection, schedule: Q01DX009 (ip), vehicle: saline
[9] = endpoint: mean survival time, dose: 4.0 mg/kg/injection, schedule: Q01DX009 (ip), vehicle: saline
[10] = endpoint: median survival time, dose: 4.0 mg/kg/injection, schedule: Q01DX009 (ip), vehicle: saline
[11] = endpoint: median survival time, dose: 8.0 mg/kg/injection, schedule: Q01DX009 (ip), vehicle: saline

C#C[C@]1(O)CC[C@H]2[C@@H]3CCc4cc(O)ccc4[C@H]3CC[C@@]21C
T/C [1]: 100 % of control and 104 % of control
T/C [2]: 96 % of control and 98 % of control
T/C [3]: 97 % of control and 101 % of control
T/C [4]: 100 % of control and 101 % of control
T/C [5]: 93 % of control and 101 % of control
T/C [6]: 86 % of control and 101 % of control

CCCCN(C)N=Nc1c(C(N)=O)n[nH]c1C
T/C (endpoint: median survival time, dose: 16.0 mg/kg/injection, schedule: Q01DX005 (ip), vehicle: saline with Tween-80): 108 % of control
T/C [7]: 112 % of control
T/C (endpoint: median survival time, dose: 64.0 mg/kg/injection, schedule: Q01DX005 (ip), vehicle: saline with Tween-80): 96 % of control

Nc1n[nH]c(N)n1
T/C (endpoint: mean survival time, dose: 512.0 mg/kg/injection, schedule: Q12HX018 (ip), vehicle: saline): 96 % of control
T/C (endpoint: mean survival time, dose: 1024.0 mg/kg/injection, schedule: Q12HX018 (ip), vehicle: saline): 107 % of control
T/C (endpoint: mean survival time, dose: 2048.0 mg/kg/injection, schedule: Q12HX018 (ip), vehicle: saline): 110 % of control
T/C (endpoint: median survival time, dose: 128.0 mg/kg/injection, schedule: Q01DX005 (ip), vehicle: saline): 107 % of control and 116 % of control
T/C (endpoint: median survival time, dose: 256.0 mg/kg/injection, schedule: Q01DX005 (ip), vehicle: saline): 108 % of control and 111 % of control
T/C (endpoint: median survival time, dose: 512.0 mg/kg/injection, schedule: Q01DX005 (ip), vehicle: saline): 120 % of control and 115 % of control
T/C (endpoint: median survival time, dose: 1024.0 mg/kg/injection, schedule: Q01DX005 (ip), vehicle: saline): 119 % of control

NC(=O)CNC1=C(N2CC2)C(=O)C(NCC(N)=O)=C(N2CC2)C1=O
T/C (endpoint: mean survival time, dose: 2.5 mg/kg/injection, schedule: Q01DX009 (ip), vehicle: saline): 101 % of control and 116 % of control
T/C (endpoint: mean survival time, dose: 5.0 mg/kg/injection, schedule: Q01DX009 (ip), vehicle: saline): 110 % of control and 113 % of control
T/C (endpoint: mean survival time, dose: 10.0 mg/kg/injection, schedule: Q01DX009 (ip), vehicle: saline): 105 % of control and 116 % of control
T/C (endpoint: mean survival time, dose: 15.0 mg/kg/injection, schedule: Q01DX009 (ip), vehicle: saline): 101 % of control and 113 % of control

C1CN(P2(N3CC3)=NP(N3CC3)(N3CC3)=NP(N3CC3)(N3CC3)=N2)CCO1 (stereo not given)
T/C (endpoint: median survival time, dose: 20.0 mg/kg/injection, schedule: Q01DX001 (ip), vehicle: saline): 92 % of control
T/C (endpoint: median survival time, dose: 40.0 mg/kg/injection, schedule: Q01DX001 (ip), vehicle: saline): 95 % of control
T/C (endpoint: median survival time, dose: 80.0 mg/kg/injection, schedule: Q01DX001 (ip), vehicle: saline): 101 % of control

CC1CC(C)(O)CC(C(O)CC2CC(=O)NC(=O)C2)C1=O (stereo not given)
T/C (endpoint: mean survival time, dose: 0.02 mg/kg/injection, schedule: Q01DX009 (ip), vehicle: saline): 97 % of control
T/C (endpoint: mean survival time, dose: 0.04 mg/kg/injection, schedule: Q01DX009 (ip), vehicle: saline): 92 % of control
T/C (endpoint: mean survival time, dose: 0.08 mg/kg/injection, schedule: Q01DX009 (ip), vehicle: saline): 110 % of control
T/C (endpoint: mean survival time, dose: 0.16 mg/kg/injection, schedule: Q01DX009 (ip), vehicle: saline): 100 % of control
T/C (endpoint: mean survival time, dose: 0.32 mg/kg/injection, schedule: Q01DX009 (ip), vehicle: saline): 106 % of control

C[n+]1ccc(Nc2ccc(NC(=O)c3ccc(Nc4cc[n+](C)c5ccc(N)cc45)cc3N)cc2)cc1
T/C [8]: 103 % of control
T/C (endpoint: mean survival time, dose: 2.0 mg/kg/injection, schedule: Q01DX009 (ip), vehicle: saline): 117 % of control
T/C [9]: 119 % of control
T/C (endpoint: mean survival time, dose: 8.0 mg/kg/injection, schedule: Q01DX009 (ip), vehicle: saline): 120 % of control
T/C (endpoint: mean survival time, dose: 16.0 mg/kg/injection, schedule: Q01DX009 (ip), vehicle: saline): 123 % of control

CN(C)/N=N/c1[nH]ncc1C(N)=O
T/C [7]: 112 % of control
T/C (endpoint: median survival time, dose: 128.0 mg/kg/injection, schedule: Q01DX005 (ip), vehicle: saline with Tween-80): 122 % of control
T/C (endpoint: median survival time, dose: 256.0 mg/kg/injection, schedule: Q01DX005 (ip), vehicle: saline with Tween-80): 114 % of control

CC[C@H]1CN2CCc3cc(OC)c(OC)cc3[C@@H]2C[C@@H]1C[C@H]1NCCc2cc(OC)c(OC)cc21
T/C (endpoint: median survival time, dose: 2.0 mg/kg/injection, schedule: Q01DX005 (ip), vehicle: Klucel (hydroxypropylcellulose) (HPC)): 98 % of control
T/C (endpoint: median survival time, dose: 4.0 mg/kg/injection, schedule: Q01DX005 (ip), vehicle: Klucel (hydroxypropylcellulose) (HPC)): 101 % of control
T/C (endpoint: median survival time, dose: 8.0 mg/kg/injection, schedule: Q01DX005 (ip), vehicle: Klucel (hydroxypropylcellulose) (HPC)): 115 % of control

CSCS(=O)C[C@H](CO)NC(=O)/C=C/c1c(C)[nH]c(=O)[nH]c1=O (stereo not given in full)
T/C (endpoint: median survival time, dose: 0.06 mg/kg/injection, schedule: Q01DX005 (ip), vehicle: Klucel (hydroxypropylcellulose) (HPC)): 97 % of control and 102 % of control
T/C (endpoint: median survival time, dose: 0.12 mg/kg/injection, schedule: Q01DX005 (ip), vehicle: Klucel (hydroxypropylcellulose) (HPC)): 100 % of control and 101 % of control
T/C (endpoint: median survival time, dose: 0.25 mg/kg/injection, schedule: Q01DX005 (ip), vehicle: Klucel (hydroxypropylcellulose) (HPC)): 100 % of control and 105 % of control
T/C (endpoint: median survival time, dose: 0.5 mg/kg/injection, schedule: Q01DX005 (ip), vehicle: Klucel (hydroxypropylcellulose) (HPC)): 100 % of control and 102 % of control

N=C(N)SCc1c2ccccc2c(CSC(=N)N)c2ccccc12
T/C (endpoint: mean survival time, dose: 50.0 mg/kg/injection, schedule: Q01DX009 (ip), vehicle: saline): 103 % of control
T/C (endpoint: mean survival time, dose: 100.0 mg/kg/injection, schedule: Q01DX009 (ip), vehicle: saline): 124 % of control
T/C (endpoint: mean survival time, dose: 200.0 mg/kg/injection, schedule: Q01DX009 (ip), vehicle: saline): 88 % of control
T/C (endpoint: median survival time, dose: 2.5 mg/kg/injection, schedule: Q01DX005 (ip), vehicle: Klucel (hydroxypropylcellulose) (HPC)): 93 % of control and 98 % of control
T/C (endpoint: median survival time, dose: 5.0 mg/kg/injection, schedule: Q01DX005 (ip), vehicle: Klucel (hydroxypropylcellulose) (HPC)): 97 % of control and 112 % of control
T/C (endpoint: median survival time, dose: 10.0 mg/kg/injection, schedule: Q01DX005 (ip), vehicle: Klucel (hydroxypropylcellulose) (HPC)): 103 % of control and 115 % of control
T/C (endpoint: median survival time, dose: 20.0 mg/kg/injection, schedule: Q01DX005 (ip), vehicle: Klucel (hydroxypropylcellulose) (HPC)): 103 % of control and 112 % of control

O=C1c2ccccc2C(=O)c2c(NCCNCCO)ccc(NCCNCCO)c21
T/C (endpoint: median survival time, dose: 4.0 mg/kg/injection, schedule: Q01DX009 (ip), vehicle: saline with Tween-80): 118 % of control
T/C [10]: 102 % of control and 111 % of control
T/C [11]: 119 % of control and 102 % of control
T/C (endpoint: median survival time, dose: 16.0 mg/kg/injection, schedule: Q01DX009 (ip), vehicle: saline): 121 % of control and 124 % of control
T/C [3]: 97 % of control
T/C (endpoint: median survival time, dose: 32.0 mg/kg/injection, schedule: Q01DX009 (ip), vehicle: saline): 103 % of control

CN(C)CCCN1c2ccccc2Sc2ccc(Cl)cc21
T/C (endpoint: median survival time, dose: 50.0 mg/kg/injection, schedule: Q01DX001 (ip), vehicle: water): 113 % of control

COc1cc([C@@H]2c3cc4c(cc3[C@@H](OC3OC5COC(C)OC5C(O)C3O)[C@H]3COC(=O)[C@H]23)OCO4)cc(OC)c1O (stereo not given in full)
T/C (endpoint: median survival time, dose: 0.5 mg/kg/injection, schedule: Q01DX009 (ip), vehicle: saline): 103 % of control
T/C (endpoint: median survival time, dose: 1.0 mg/kg/injection, schedule: Q01DX009 (ip), vehicle: saline): 101 % of control
T/C (endpoint: median survival time, dose: 2.0 mg/kg/injection, schedule: Q01DX009 (ip), vehicle: saline): 94 % of control
T/C [10]: 91 % of control
T/C [11]: 102 % of control

CCC(=O)O[C@H]1CC[C@H]2[C@@H]3CC[C@H]4CC(=O)[C@H](C)C[C@]4(C)[C@H]3CC[C@]12C
T/C [1]: 105 % of control and 115 % of control
T/C [2]: 105 % of control
T/C [3]: 105 % of control
T/C [4]: 122 % of control and 101 % of control
T/C [5]: 103 % of control
T/C [6]: 104 % of control
T/C (endpoint: median survival time, dose: 512.0 mg/kg/injection, schedule: Q01DX009 (ip), vehicle: saline with Tween-80): 121 % of control and 103 % of control

O=C1C=CN(C2OC(CO)C(O)C2O)C(=O)C1 (stereo not given)
T/C (endpoint: mean survival time, dose: 33.0 mg/kg/injection, schedule: Q01DX009 (ip), vehicle: saline): 150 % of control
T/C (endpoint: median survival time, dose: 100.0 mg/kg/injection, schedule: Q01DX009 (ip), vehicle: saline): 116 % of control
T/C (endpoint: median survival time, dose: 200.0 mg/kg/injection, schedule: Q01DX009 (ip), vehicle: saline): 105 % of control
T/C (endpoint: median survival time, dose: 400.0 mg/kg/injection, schedule: Q01DX009 (ip), vehicle: saline): 107 % of control

O=P1(NCCCl)OCCC(OO)N1CCCl (stereo not given)
T/C (endpoint: median survival time, dose: 40.0 mg/kg/injection, schedule: Q01DX001 (ip), vehicle: Klucel (hydroxypropylcellulose) (HPC)): 105 % of control
T/C (endpoint: median survival time, dose: 80.0 mg/kg/injection, schedule: Q01DX001 (ip), vehicle: Klucel (hydroxypropylcellulose) (HPC)): 111 % of control
T/C (endpoint: median survival time, dose: 160.0 mg/kg/injection, schedule: Q01DX001 (ip), vehicle: Klucel (hydroxypropylcellulose) (HPC)): 113 % of control
T/C (endpoint: median survival time, dose: 320.0 mg/kg/injection, schedule: Q01DX001 (ip), vehicle: Klucel (hydroxypropylcellulose) (HPC)): 91 % of control

CN(CCO)C1=C(N2CC2)C(=O)C(N(C)CCO)=C(N2CC2)C1=O
T/C (endpoint: mean survival time, dose: 0.5 mg/kg/injection, schedule: Q01DX009 (ip), vehicle: saline): 106 % of control and 109 % of control
T/C [8]: 111 % of control
T/C [9]: 101 % of control
